{"source": "paper PMC12563652", "about": "(International Journal of Molecular Sciences, 2025)", "key": {"3T3-L1 cells": {"tested_on": "3T3-L1 cells", "assay": "Lipid accumulation (AdipoRed assay) in 3T3-L1 cells", "assay_type": "cell-based, mouse", "procedure": "(§1) The 3T3-L1 mouse embryonic fibroblast cell line (ATCC CRL-11605) was cultured according to the standard protocol in Dulbecco’s Modified Eagle Medium (DMEM) supplemented with 10% bovine calf serum, 100 µg/mL streptomycin, and 100 IU/mL penicillin, at 37 °C in a humidified atmosphere containing 5% CO2. Cells were seeded at a density of 10,000 cells/well in collagen type I–coated (10 µg/mL) 96-well plates and allowed to attach for 24 h. Differentiation was initiated by replacing the medium with induction medium composed of DMEM, 0.5 mM 3-isobutyl-1-methylxanthine (IBMX), 1 µM dexamethasone, and 10% fetal bovine serum (FBS). After 48 h (differentiation day 2), the medium was replaced with DMEM supplemented with 10% FBS and 10 µg/mL human recombinant insulin. After an additional 24 h, the medium was replaced with DMEM supplemented with 10% bovine calf serum, 100 µg/mL streptomycin, and 100 IU/mL penicillin. The medium was refreshed every 24 h for 10 consecutive days to allow full differentiation into adipocytes.\nOn day 10 of differentiation, cells were treated with test compounds for 24 h. To investigate the involvement of the TAAR1 receptor, cells were pre-treated for 15 min with the selective TAAR1 antagonist RTI-7470-44 (40 nM) before compound exposure. After incubation, the culture medium was removed, and wells were gently rinsed with 200 µL PBS and refilled with 200 µL PBS. AdipoRed reagent (5 µL; Lonza) was added to each well, mixed, and incubated at room temperature for 10 min. Fluorescence was measured using the POLARstar Omega plate reader (excitation 485 nm, emission 535 nm)."}, "3T3-L1 adipocytes": {"tested_on": "3T3-L1 adipocytes", "assay": "Steatosis, HCS LipidTOX imaging in 3T3-L1 adipocytes", "assay_type": "cell-based, mouse", "procedure": "as §1\nLipid accumulation and phospholipidosis were evaluated using the HCS LipidTOX Phospholipidosis and Steatosis Detection Kit (Thermo Fisher Scientific). Cells were cultured in black, clear-bottom 96-well plates and treated as described. Next, cells were fixed with 4% paraformaldehyde (15 min), washed with PBS, and stained with LipidTOX Green Neutral Lipid Stain (for steatosis) and LipidTOX Red Phospholipidosis Detection Reagent, prepared according to the manufacturer’s instructions. Nuclei were counterstained with Hoechst 33342 (2 µg/mL). Image acquisition and quantitative analysis were performed using High Content Screening (HCS) technology on the ImageXpress XLS system (Molecular Devices). Lipid droplet and phospholipid content were quantified using automated image analysis pipelines."}, "human TAAR1": {"molecular_target": "T1, human TAAR1 (Homo sapiens, UniProt Q96RJ0)", "T1 sequence (Q96RJ0 1-339)": "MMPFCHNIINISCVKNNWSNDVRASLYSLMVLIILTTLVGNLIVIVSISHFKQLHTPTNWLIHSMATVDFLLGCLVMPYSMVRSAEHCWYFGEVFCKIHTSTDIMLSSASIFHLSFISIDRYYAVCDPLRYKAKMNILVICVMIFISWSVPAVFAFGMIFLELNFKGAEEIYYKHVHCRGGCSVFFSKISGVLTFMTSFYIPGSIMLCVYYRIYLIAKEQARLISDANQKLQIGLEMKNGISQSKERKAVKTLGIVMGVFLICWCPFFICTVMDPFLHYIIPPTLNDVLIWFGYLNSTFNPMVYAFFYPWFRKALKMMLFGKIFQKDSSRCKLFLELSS", "assay": "TAAR1 agonist activity, Hit Hunter cAMP assay", "assay_type": "cell-based", "experimental": "The intrinsic activity of the TAAR1 receptor will be assessed according to the manufacturer’s protocol, using the Hit Hunter® cAMP assay by DiscoverX. This assay enables monitoring of GPCR activation in cells stably expressing TAAR1 by measuring changes in the level of the secondary messenger, cAMP. The cAMP Hunter cell lines were cultured from frozen stocks following standard procedures. Cells were plated in white-walled 384-well microplates at a total volume of 20 µL per well and incubated at 37 °C for the required period before analysis. To assess agonist activity, cells were exposed to the test compound to trigger a response. The culture medium was then removed and replaced with 15 µL of a 2:1 mixture of HBSS and 10 mM Hepes containing the cAMP XS+ antibody reagent. Sample stocks were diluted to prepare a 4× concentration in assay buffer. Subsequently, 5 µL of the 4× sample was added to each well, and the plates were incubated at either 37 °C or room temperature for 30 or 60 min. The vehicle was used at a concentration of 1%. After incubating the compounds for the required time, the assay signal was produced by adding 20 µL of the cAMP XS+ ED/CL lysis cocktail and incubating for one hour. This was followed by a three-hour incubation with 20 µL of the cAMP XS+EA reagent at room temperature. After signal development, the microplates were read using a PerkinElmer Envision Reader to detect chemiluminescence."}}}
{"smiles": "[H]/N=C(\\N)NN=Cc1c(Cl)cncc1Cl", "note": "[JP-14, (E)-2-((3,5-Dichloropyridin-4-yl)Methylene)Hydrazine-1-Carboximidamide]", "values": [{"measurement": "lipid-lowering effect under TAAR1 blockade", "setting": "3T3-L1 cells; 10 µM + RTI-7470-44 (40 nM)", "result": "completely abolished"}, {"measurement": "lipid accumulation (intracellular lipid content), reduction", "setting": "3T3-L1 cells; 10 µM, compared to vehicle-treated controls", "result": 35, "unit": "%"}, {"measurement": "effect on steatosis under TAAR1 blockade", "setting": "3T3-L1 adipocytes; 10 µM + RTI-7470-44 (40 nM)", "result": "abolished"}, {"measurement": "steatosis (neutral lipid accumulation)", "setting": "3T3-L1 adipocytes; 10 µM, vs vehicle", "result": "statistically significant decrease"}, {"measurement": "maximum cell stimulation (cAMP level) compared with the highest concentration of tyramine", "setting": "human TAAR1; TAAR1-expressing cells", "result": "about twice as high"}, {"measurement": "EC50", "setting": "human TAAR1; cAMP accumulation, n.a. = no activity at 10–5 M, read-out: TAAR1 Ago EC50", "result": "11.3 ± 1.4", "unit": "µM"}]}
